For 6 compounds, T/C results are on record in PubChem BioAssay AID192 (DTP/NCI, 2004).

Each structure is given as a SMILES string. Values joined by “and” are separate entries in the source; they are usually repeats but may differ in a detail not shown here. Equal entries are not always repeated. Inconclusive results and toxic doses are left out.

The assay has as its system BDF1 mice, B16 melanoma ip, median survival T/C. The assay is described as follows: NCI In Vivo Anticancer Drug Screen. Data for tumor model B16 Melanoma (intraperitoneal) in B6D2F1 (BDF1) mice. As to conditions: endpoint: median survival time, higher = longer survival. A digest of the protocol:
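Compounds were tested in mice carrying transplantable tumors. Survival or tumor size was recorded, and each value is the treated-group measurement (T) divided by that of the vehicle-treated control group (C).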

The mark [1] stands for this setting: dose: 100.0 mg/kg/injection, schedule: Q01DX009 (ip), vehicle: saline with Tween-80.

For the compound `O=C(O)CC(NC(=O)CP(=O)(O)O)C(=O)O` (centres undefined), the T/C (dose: 10.0 mg/kg/injection, schedule: Q01DX005 (ip), vehicle: saline) is 112 % of control; the T/C (dose: 15.6 mg/kg/injection, schedule: Q03HX024 (ip), vehicle: saline) was 175 % of control; the T/C (dose: 20.0 mg/kg/injection, schedule: Q01DX005 (ip), vehicle: saline) is 123 % of control; the T/C (dose: 21.9 mg/kg/injection, schedule: Q01DX009 (ip), vehicle: saline) is 150 % of control; the T/C (dose: 25.9 mg/kg/injection, schedule: Q03HX024 (ip), vehicle: saline) is 176 % of control; the T/C (dose: 31.1 mg/kg/injection, schedule: Q01DX009 (ip), vehicle: saline) was 156 % of control. Besides, the T/C runs as follows: (dose: 32.9 mg/kg/injection, schedule: Q01DX009 (ip), vehicle: saline) 164 % of control; (dose: 43.2 mg/kg/injection, schedule: Q03HX024 (ip), vehicle: saline) 182 % of control; (dose: 49.4 mg/kg/injection, schedule: Q01DX009 (ip), vehicle: saline) 174 % of control; (dose: 51.8 mg/kg/injection, schedule: Q01DX009 (ip), vehicle: saline) 177 % of control; (dose: 74.1 mg/kg/injection, schedule: Q01DX009 (ip), vehicle: saline) 182 % of control; (dose: 77.8 mg/kg/injection, schedule: Q04DX003 (ip), vehicle: saline) 153 % of control. Also, the T/C (dose: 79.0 mg/kg/injection, schedule: Q01DX009 (ip), vehicle: saline) is 170 % of control; the T/C (dose: 79.0 mg/kg/injection, schedule: Q01DX009 (sc), vehicle: saline) was 165 % of control; the T/C (dose: 86.4 mg/kg/injection, schedule: Q01DX004 (ip), vehicle: saline) is 173 % of control; the T/C (dose: 86.4 mg/kg/injection, schedule: Q01DX009 (ip), vehicle: saline) is 177 % of control; the T/C (dose: 111.0 mg/kg/injection, schedule: Q01DX009 (ip), vehicle: saline) is 201 % of control; the T/C (dose: 117.0 mg/kg/injection, schedule: Q04DX003 (oral), vehicle: saline) is 106 % of control. The T/C is, setting by setting: (dose: 118.0 mg/kg/injection, schedule: Q01DX009 (ip), vehicle: saline) 185 % of control; (dose: 118.0 mg/kg/injection, schedule: Q01DX009 (oral), vehicle: saline) 100 % of control; (dose: 118.0 mg/kg/injection, schedule: Q01DX009 (sc), vehicle: saline) 176 % of control; (dose: 125.0 mg/kg/injection, schedule: Q04DX003 (ip), vehicle: saline) 162 % of control; (dose: 130.0 mg/kg/injection, schedule: Q04DX003 (ip), vehicle: saline) 168 % of control and 171 % of control; (dose: 144.0 mg/kg/injection, schedule: Q01DX004 (ip), vehicle: saline) 178 % of control. The T/C reads like this: (dose: 144.0 mg/kg/injection, schedule: Q01DX009 (ip), vehicle: saline) 199 % of control; (dose: 160.0 mg/kg/injection, schedule: Q01DX005 (ip), vehicle: saline) 159 % of control; (dose: 167.0 mg/kg/injection, schedule: Q01DX009 (ip), vehicle: saline) 204 % of control; (dose: 177.0 mg/kg/injection, schedule: Q01DX009 (ip), vehicle: saline) 177 % of control; (dose: 177.0 mg/kg/injection, schedule: Q01DX009 (sc), vehicle: saline) 178 % of control; (dose: 194.0 mg/kg/injection, schedule: Q04DX003 (oral), vehicle: saline) 110 % of control. In addition, the T/C runs as follows: (dose: 216.0 mg/kg/injection, schedule: Q04DX003 (ip), vehicle: saline) 161 % of control and 201 % of control; (dose: 240.0 mg/kg/injection, schedule: Q01DX004 (ip), vehicle: saline) 183 % of control; (dose: 250.0 mg/kg/injection, schedule: Q01DX009 (ip), vehicle: saline) 190 % of control; (dose: 250.0 mg/kg/injection, schedule: Q04DX003 (ip), vehicle: saline) 182 % of control; (dose: 320.0 mg/kg/injection, schedule: Q01DX005 (ip), vehicle: saline) 175 % of control; (dose: 324.0 mg/kg/injection, schedule: Q01DX001 (ip), vehicle: saline) 168 % of control. The T/C (dose: 324.0 mg/kg/injection, schedule: Q04DX003 (oral), vehicle: saline) was 95 % of control; the T/C (dose: 360.0 mg/kg/injection, schedule: Q04DX003 (ip), vehicle: saline) is 171 % of control and 227 % of control; the T/C (dose: 400.0 mg/kg/injection, schedule: Q01DX001 (oral), vehicle: saline) was 97 % of control; the T/C (dose: 400.0 mg/kg/injection, schedule: Q01DX004 (ip), vehicle: saline) is 46 % of control; the T/C (dose: 500.0 mg/kg/injection, schedule: Q04DX003 (ip), vehicle: saline) was 197 % of control; the T/C (dose: 540.0 mg/kg/injection, schedule: Q01DX001 (ip), vehicle: saline) is 174 % of control. For the same compound, the T/C (dose: 540.0 mg/kg/injection, schedule: Q04DX003 (oral), vehicle: saline) was 110 % of control; the T/C (dose: 600.0 mg/kg/injection, schedule: Q04DX003 (ip), vehicle: saline) was 86 % of control and 201 % of control; the T/C (dose: 900.0 mg/kg/injection, schedule: Q01DX001 (ip), vehicle: saline) is 154 % of control and 190 % of control; the T/C (dose: 900.0 mg/kg/injection, schedule: Q01DX001 (oral), vehicle: saline) is 100 % of control; the T/C (dose: 900.0 mg/kg/injection, schedule: Q01DX001 (sc), vehicle: saline) was 154 % of control; the T/C (dose: 1350.0 mg/kg/injection, schedule: Q01DX001 (ip), vehicle: saline) is 150 % of control. The T/C by setting is: (dose: 1350.0 mg/kg/injection, schedule: Q01DX001 (sc), vehicle: saline) 120 % of control; (dose: 1500.0 mg/kg/injection, schedule: Q01DX001 (ip), vehicle: saline) 119 % of control.
As for `C(CSC1=NCCN1)CSC1=NCCN1`, the T/C is, setting by setting: (dose: 6.25 mg/kg/injection, schedule: Q01DX009 (ip), vehicle: saline) 97 % of control and 102 % of control; (dose: 12.5 mg/kg/injection, schedule: Q01DX009 (ip), vehicle: saline) 98 % of control and 107 % of control; (dose: 25.0 mg/kg/injection, schedule: Q01DX009 (ip), vehicle: saline) 105 % of control and 107 % of control; (dose: 50.0 mg/kg/injection, schedule: Q01DX009 (ip), vehicle: saline) 96 % of control and 117 % of control; (dose: 100.0 mg/kg/injection, schedule: Q01DX009 (ip), vehicle: saline) 101 % of control and 112 % of control; (dose: 200.0 mg/kg/injection, schedule: Q01DX009 (ip), vehicle: saline) 107 % of control.
`COc1cccc2c1C(=O)c1c(O)c3c(c(O)c1C2=O)C[C@@](O)(C(=O)CO)C[C@@H]3OC1CC(N(C)C)C(O)C(C)O1` (some centres undefined): the T/C reads like this: (dose: 0.63 mg/kg/injection, schedule: Q01DX001 (ip), vehicle: water) 119 % of control; (dose: 1.73 mg/kg/injection, schedule: Q04DX003 (ip), vehicle: water) 98 % of control; (dose: 3.6 mg/kg/injection, schedule: Q01DX001 (ip), vehicle: water) 117 % of control; (dose: 4.8 mg/kg/injection, schedule: Q04DX003 (ip), vehicle: water) 94 % of control and 113 % of control; (dose: 5.0 mg/kg/injection, schedule: Q01DX001 (ip), vehicle: water) 166 % of control and 170 % of control; (dose: 6.0 mg/kg/injection, schedule: Q01DX001 (ip), vehicle: water) 104 % of control.
Regarding `CC(C)OC(=O)Nc1ccc(-c2ccc(NC(=O)OC(C)C)cc2)cc1`, the T/C (dose: 100.0 mg/kg/injection, schedule: Q01DX009 (ip), vehicle: Klucel (hydroxypropylcellulose) (HPC)) was 109 % of control; the T/C (dose: 100.0 mg/kg/injection, schedule: Q04DX003 (ip), vehicle: Klucel (hydroxypropylcellulose) (HPC)) was 109 % of control; the T/C (dose: 200.0 mg/kg/injection, schedule: Q01DX009 (ip), vehicle: Klucel (hydroxypropylcellulose) (HPC)) is 118 % of control; the T/C (dose: 200.0 mg/kg/injection, schedule: Q04DX003 (ip), vehicle: Klucel (hydroxypropylcellulose) (HPC)) was 90 % of control; the T/C (dose: 400.0 mg/kg/injection, schedule: Q01DX009 (ip), vehicle: Klucel (hydroxypropylcellulose) (HPC)) was 109 % of control; the T/C (dose: 400.0 mg/kg/injection, schedule: Q04DX003 (ip), vehicle: Klucel (hydroxypropylcellulose) (HPC)) was 92 % of control.
As for `CCOc1ccnc(OCC)n1`, the T/C was 96 % of control (dose: 25.0 mg/kg/injection, schedule: Q01DX009 (ip), vehicle: saline with Tween-80); 101 % of control (dose: 50.0 mg/kg/injection, schedule: Q01DX009 (ip), vehicle: saline with Tween-80); 99 % of control under setting [1].
On to `COc1cc2c(cc1OC)C1CCN3C(=O)CCC3N1CC2` (centres undefined), for which the T/C reads like this: under setting [1], 94 % of control; (dose: 200.0 mg/kg/injection, schedule: Q01DX009 (ip), vehicle: saline with Tween-80) 91 % of control; (dose: 400.0 mg/kg/injection, schedule: Q01DX009 (ip), vehicle: saline with Tween-80) 105 % of control.
